According to US20110027858A1, “Method of Modifying Fungal Morphology” (University of Akron, priority 2009, published 2011):

How the values were obtained:
T. reesei [1] = experiment: Effects of several surfactants on morphology (flocculation / pellet formation) of T. reesei; assay type: cell-based, Trichoderma reesei RUT C30; details: for Effective in changing morphology?: compared with 0.5 g/L and 1 g/L surfactant concentrations
Description: The effects of several surfactants on the morphology of T. reesei were studied. TABLE 1 summarizes the observations of the effects of several surfactants regarding to flocculation or formation of pellets in T. reesei. […] All surfactants listed in TABLE 1 were compared with 0.5 g/L and 1 g/L surfactant concentrations.

T. reesei [2] = experiment: Shake flask growth of T. reesei with Triton X-100 (Example 6): morphology, growth, enzyme activity; assay type: cell-based, Trichoderma reesei RUT C30
Experimental: The effect of growing a fungus in a growth medium containing Triton X-100 was tested. A culture was grown on a growth medium containing (g/L): (NH4)2SO4 1.4, KH2PO4 2, MgSO4.7H2O 0.3, CaCl2.2H2O 0.4, urea 0.3, peptone 1.0, Tween-80 0.2, FeSO4.7H2O 0.005, MnSO4.H2O 0.0016, ZnSO4.7H2O 0.0014, CoCl2 0.002, and lactose 10.0. Initially the unadjusted pH was 5.5 after autoclaving.
Test cultures were grown in 50 mL volume in 250 mL flasks at 28° C. in a Que Orbital shaker (Model 4703, Parkersburg, W.Va., USA) at 250 rpm without pH control, initially at 5.5, for 7 days. Triton X-100 was tested at the following concentrations (g/L): 0.1, 0.3, 0.6, 0.8, 1.0, 1.5.
Cultures were followed for 7 days and visually checked for bulk morphology. Periodic monitoring was done aseptically by collecting a 2 mL representative sample every 24 hrs to measure cell concentration, enzyme activity, sugar concentration, and residual surfactant amounts.

Substance | Size of generally uniform pellets formed (T. reesei [1]) | Effective in changing morphology? (T. reesei [1]) | global average doubling time (T. reesei [2]; across tested Triton concentrations, following the lag phase) | average increase in the enzyme activity (T. reesei [2]; additive concentration in excess of 0.1 g/L) | lag compared to the surfactant free system (T. reesei [2]; concentrations above 0.1 g/L) | concentration producing "pellet" growth (T. reesei [2]; tested at 0.1-1.5 g/L, 7 days, 28° C., 250 rpm) | Description: tendency toward cell flocculation with increasing surfactant concentration (T. reesei [1]; 0.5 g/L and 1 g/L surfactant, flocculation is correlated with pellet formation)
4-(1,1,3,3-tetramethylbutyl)phenyl-polyethylene glycol [Triton X-100] | uniform ~1 mm pellets | YES | 9.1 ± 1.8 h | 73±12% | one-day | greater than 0.3 g/L | –
polyoxyethylene sorbitan monolaurate [TWEEN ® 20] | – | YES | – | – | – | – | shows tendencies toward increased
